Data set [1] has as its system anaphylactic release of histamine, guinea-pig lung sections. The data set is described as follows: inhibition of the anaphylactic release of histamine (proper effect). It counts as cell-based, Dunkin-Hartley guinea-pigs. Particulars: Cavia porcellus, in vitro, read-out: Minimum inhibitory dose (MID). As for the experimental part: (§1) Dunkin-Hartley guinea-pigs which are first passively sensitized by an intravenous injection of 1 ml of isologous antiovalbumin serum are used. Twenty-four hours after the injection, the lungs are then perfused with a Tyrode buffer to evacuate the blood, and then removed and cut into sections of 1 mm. These sections are divided up into test tubes (3 sections per tube) to give 10 experimental groups of lung sections per guinea-pig. A "positive" control group of lung sections is stimulated by addition of an ovalbumin solution (0.1 mg/ml) to induce the anaphylactic release of histamine and serves to determine the maximum amount of histamine (100%) which can be released. A "negative" control group which is not stimulated by ovalbumin serves to determine the naturally released amount of histamine (spontaneous release). In three other groups, the lung sections are incubated at 37° C. for 30 minutes in the ovalbumin solution in the presence of three different doses of the compound to be tested (one dose per group). […] At this dose, isoprenaline inhibits the release of histamine by 30 to 40%, which is verified on a control group treated only with isoprenaline alone at this dose. In addition, a supplementary control group which is not stimulated by ovalbumin is used to detect a possible spontaneous release of histamine by the highest dose of the compound tested. In each group, the histamine released in the incubation medium is measured by spectrofluorometry (D. P. EVANS et al., Life Sci., 12, (1973), 327-336).

The test system of data set [2] is bronchospasm induced by histamine. In words: bronchospasmolytic activity (Konzett and Roessler), bronchospasm induced by histamine. Particulars: Cavia porcellus; intravenous; histamine-induced bronchospasm; read-out: Doses (ID50), Histamine. It counts as in vivo, Dunkin-Hartley guinea-pig. As for the experimental part: This activity was measured in the Dunkin-Hartley guinea-pig by the method of H. KONZETT and […] (Naunyn Schmiedebergs Arch. exp. Path. […] The anesthetized (urethane) and curarized (gallamine) guinea-pig is placed under assisted respiration. The endotracheal pressure is recorded. […] The compound to be tested is also administered intravenously two minutes before the administration of the spasmogen and then in 3 to 4 cumulative doses in increasing amounts at intervals of 15 minutes. Six animals per compound to be tested and per spasmogen are used.

The next data set can be described thus: toxicity, Irwin's test. It counts as in vivo. The conditions noted are these: i.p.; death of two animals out of three within 48 hours. As for the experimental part: Progressive doses of the compound to be tested are administered intraperitoneally to groups of three mice until the lethal dose is reached (dose which causes the death of two animals out of three within 48 hours).

For another data set, the system named is serotonergic activity. The data set is described as follows: "wet dog shake" (WDS) behavior, serotonergic activity. Type of data set: in vivo, male Sprague-Dawley rats. As to the method:
A decrease in serotonergic activity has been correlated with the occurrence of affective disorders, such as depression and anxiety. […] The test is carried out in the morning on male Sprague-Dawley rats (±180 g), divided the previous day into groups of 8 animals in residence cages. The cage used for the tests is a transparent enclosure of 12×24×30 cm in height, the floor of which is covered with a layer of sand. The compounds to be tested, dissolved either in physiological salt solution or in a citrate buffer of pH 5, are administered intraperitoneally in a different dose for each group treated. The control groups receive an intraperitoneal injection of the same vehicle (either physiological salt solution or citrate buffer). […] The mean values of the results are calculated and analyzed statistically by the Mann-Whitney method. The mean values of the number of shakes obtained for the compounds according to the invention administered intraperitoneally at the doses indicated (in mg/kg) are given in Table V below.

The subject of data set [3] is anaphylactic release of histamine, guinea-pig lung sections. The data set is described as follows: potentiation of the inhibition of anaphylactic histamine release by isoprenaline. Type of data set: cell-based, Dunkin-Hartley guinea-pigs. Particulars: with isoprenaline 10^-7 mole per liter. As to the method:
as §1

Structures are written as SMILES. Counter-ions that a name gives are not always drawn.

Turning to `CC1(c2nc(NC3CC3)nc(N3CCOCC3)n2)CC1` [Compound 24, 2-Cyclopropylamino-4-(1-methylcyclopropyl)-6-morpholino-1,3,5-triazine], the minimal effective concentration in data set [1] came out at 0.032 µM. Besides, in data set [2], the ED50 stood at 0.04 µmol/kg. This molecule returned a Lethal dose in the data set “toxicity, Irwin's test” of 825 mg/kg. Further, in the data set on serotonergic activity (2.75 mg/kg i.p., counted over 30 minutes), the “Average number of shakes” value is on record as 6.1 ± 2.3 shakes. In addition, the “Minimum potentiating dose (MPD)” value in data set [3] amounted to 0.32 µmol/L.
Take `[O-][S+]1CCN(c2nc(NC3CC3)nc(C3CC3)n2)C1` (stereo not shown) [Compound 23, 2-Cyclopropyl-4-cyclopropylamino-6-(3-thiazolidinyl)-1,3,5-triazine S-oxide]: the Lethal dose in “toxicity, Irwin's test” stood at 156 mg/kg.
With `N[C@@H](Cc1c[nH]c2ccc(O)cc12)C(=O)O` [5-HTP/carbidopa, 5-hydroxytryptophan, reference compound], the “Average number of shakes” value in the data set with serotonergic activity (5-HTP 100.0 mg/kg i.p. after carbidopa 25 mg/kg i.p., measured 90 to 120 minutes after 5HTP) is 4.7 ± 1.5 shakes; in the data set with serotonergic activity (5-HTP 200.0 mg/kg i.p. after carbidopa 25 mg/kg i.p., measured 90 to 120 minutes after 5HTP), 19.6 ± 3.0 shakes.
As for `CC1CC1c1nc(NC2CC2)nc(N2CCOCC2)n1.Cl` (stereo not shown) [Compound 25, 2-Cyclopropylamino-4-(2-methylcyclopropyl)-6-morpholino-1,3,5-triazine hydrochloride], the minimal effective concentration in data set [1] was 0.032 µM. The Lethal dose in the data set “toxicity, Irwin's test” was 99.7 mg/kg. For the same molecule, the “Average number of shakes” value in the data set on serotonergic activity (1.0 mg/kg i.p., counted over 30 minutes) was determined as 19.6 ± 5.0 shakes. Besides, in data set [3], the “Minimum potentiating dose (MPD)” value is 0.032 µmol/L.
Regarding `O=S1(=O)CCN(c2nc(NC3CC3)nc(C3CC3)n2)C1` [Compound 22, 2-Cyclopropyl-4-cyclopropylamino-6-(3-thiazolidinyl)-1,3,5-triazine S,S-dioxide], the minimal effective concentration in data set [1] was determined as 0.1 µM. In “toxicity, Irwin's test”, the Lethal dose amounted to 295 mg/kg. For the same molecule, the “Average number of shakes” value with serotonergic activity (0.95 mg/kg i.p., counted over 30 minutes) is listed as 8.1 ± 1.7 shakes. Further, the “Minimum potentiating dose (MPD)” value in data set [3] amounted to 0.032 µmol/L.
In the case of `O=S1(=O)CCN(c2nc(NC3CC3)nc(C3CCC3)n2)CC1` [Compound 26, 2-Cyclobutyl-4-cyclopropylamino-6-thiomorpholino-1,3,5-triazine S,S-dioxide hydrochloride], the minimal effective concentration in data set [1] is 1 µM. Moreover, the ED50 in data set [2] came to 0.03 µmol/kg. The same molecule displayed a Lethal dose in the data set “toxicity, Irwin's test” of 201.5 mg/kg. Besides, the “Average number of shakes” value with serotonergic activity (1.15 mg/kg i.p., counted over 30 minutes) is on record as 11.8 ± 4.3 shakes. Besides, in data set [3], the “Minimum potentiating dose (MPD)” value came to 0.32 µmol/L.
For `C1CN(c2nc(NC3CC3)nc(C3CC3)n2)CS1` [Compound 21, 2-Cyclopropyl-4-cyclopropylamino-6-(3-thiazolidinyl)-1,3,5-triazine], in data set [1], the minimal effective concentration was 0.1 µM. This molecule also returned a Lethal dose in the data set “toxicity, Irwin's test” of 263 mg/kg. Moreover, in the data set with serotonergic activity (2.63 mg/kg i.p., counted over 30 minutes), the “Average number of shakes” value was determined as 5.5 ± 2.0 shakes. The “Minimum potentiating dose (MPD)” value in data set [3] turned out to be 0.32 µmol/L.

These data come from US5348956A, “Substituted cyclopropylamino-1,3,5-triazines” (UCB S.A., priority 1991, dated 1994).
